# Measurements taken from ChEMBL document CHEMBL4177664, “Macrocyclic pyrrolobenzodiazepine dimers as antibody-drug conjugate payloads” (Bioorg Med Chem Lett, 2017).
# Legend:
# NCI-N87 = test: Antiproliferative activity against human NCI-N87 cells after 72 hrs by MTS assay; format: functional, cell-based; details: NCI-N87, 72 h
# NCI-H226 = test: Antiproliferative activity against human NCI-H226 cells after 72 hrs by MTS assay; format: functional, cell-based; details: NCI-H226, 72 h
# OVCAR-3 = test: Antiproliferative activity against human OVCAR3 cells after 72 hrs by MTS assay; format: functional, cell-based; details: OVCAR-3, 72 h
# [1] = Stability in rat serum measured up to 24 hrs; format: ADME, cell-free
# [2] = Stability in human serum measured up to 24 hrs; format: ADME, cell-free
# [3] = Stability in mouse serum measured up to 24 hrs; format: ADME, cell-free
# HCT-116 = test: Antiproliferative activity against human HCT116 cells after 72 hrs by MTS assay; format: functional, cell-based; details: HCT-116, 72 h
# HCT-116/VM46 = test: Antiproliferative activity against human HCT116/VM46 cells after 72 hrs by MTS assay; format: functional, cell-based; details: HCT-116/VM46, 72 h
# [4] = Aqueous solubility of the compound at pH 5.5; format: physicochemical; details: aqueous medium
Compound,IC50 (NCI-N87),IC50 (NCI-H226),IC50 (OVCAR-3),Stability [1],Stability [2],Stability [3],IC50 (HCT-116),IC50 (HCT-116/VM46),solubility [4]
O=C1c2cc3c(cc2N=C[C@@H]2CCCN12)OCCCOc1cc2c(cc1OCCCCCCCCCCCCO3)C(=O)N1CCC[C@H]1C=N2,306 nM,109 nM,136 nM,–,–,–,–,–,–
O=C(CCN1C(=O)C=CC1=O)NCCOCCOCCOCCOCCOCCOCCOCCOCCC(=O)ON1C(=O)CCC1=O,–,–,–,Unstable,Unstable,Unstable,–,–,–
CC1=CN2C(=O)c3cc4c(cc3N=C[C@@H]2C1)OCCCOc1cc2c(cc1OCCCCCCCCO4)C(=O)N1C=C(c3ccc(N)cc3)C[C@H]1C=N2,1.36 nM,0.655 nM,1.24 nM,–,–,–,0.135 nM,1.22 nM,–
COc1cc2c(cc1OCCCOc1cc3c(cc1OC)C(=O)N1CCC[C@H]1C=N3)N=C[C@@H]1CCCN1C2=O [DSB-120],63 nM,70 nM,56 nM,–,–,–,–,–,–
O=C1c2cc3c(cc2N=C[C@@H]2CCCN12)OCCCOc1cc2c(cc1OCCCCCCCO3)C(=O)N1CCC[C@H]1C=N2,4.6 nM,8.1 nM,3.4 nM,–,–,–,–,–,–
O=C1c2cc3c(cc2N=C[C@@H]2CCCN12)OCCCOc1cc2c(cc1OCCCCCCCCO3)C(=O)N1CCC[C@H]1C=N2,2.7 nM,1.6 nM,1.2 nM,–,–,–,–,–,–
COc1ccc(C2=CN3C(=O)c4cc5c(cc4N=C[C@@H]3C2)OCCCOc2cc3c(cc2OCCCCCCCCO5)C(=O)N2C=C(c4ccc(N)cc4)C[C@H]2C=N3)cc1,0.559 nM,0.355 nM,0.311 nM,–,–,–,0.063 nM,0.36 nM,–
O=C1c2cc3c(cc2N=C[C@@H]2CCCN12)OCCCOc1cc2c(cc1OCCCCCCCCCCCO3)C(=O)N1CCC[C@H]1C=N2,146 nM,69 nM,78 nM,–,–,–,–,–,–
COc1cc2c(cc1OCCCOc1cc3c(cc1OC)C(=O)N1C=C(c4ccccc4)C[C@H]1C=N3)N=C[C@@H]1CC(c3ccccc3)=CN1C2=O,0.152 nM,0.117 nM,0.126 nM,–,–,–,–,–,–
CN1CCN(c2ccc(C3=CN4C(=O)c5cc6c(cc5N=C[C@@H]4C3)OCCCOc3cc4c(cc3OCCCCCCCCO6)C(=O)N3C=C(c5ccc(N6CCN(C)CC6)cc5)C[C@H]3C=N4)cc2)CC1,0.034 nM,0.047 nM,0.35 nM,–,–,–,0.006 nM,0.076 nM,> 698 µg/mL
CN1CCN(c2ccc(C3=CN4C(=O)c5cc6c(cc5N=C[C@@H]4C3)OCCCOc3cc4c(cc3OCCCCCCCCO6)C(=O)N3C=C(c5ccc(N)cc5)C[C@H]3C=N4)cc2)CC1,0.486 nM,0.024 nM,0.385 nM,–,–,–,0.016 nM,0.015 nM,–
O=C1c2cc3c(cc2N=C[C@@H]2CCCN12)OCCCOc1cc2c(cc1OCCCCCCCCCO3)C(=O)N1CCC[C@H]1C=N2,8.3 nM,8.7 nM,7.3 nM,–,–,–,–,–,–
O=C1c2cc3c(cc2N=C[C@@H]2CCCN12)OCCCOc1cc2c(cc1OCCCCCCCCCCO3)C(=O)N1CCC[C@H]1C=N2,22 nM,12 nM,20 nM,–,–,–,–,–,–
O=C1c2cc3c(cc2N=C[C@@H]2CC(c4ccccc4)=CN12)OCCCOc1cc2c(cc1OCCOCCOCCO3)C(=O)N1C=C(c3ccccc3)C[C@H]1C=N2,1.54 nM,1.07 nM,1.7 nM,–,–,–,0.129 nM,6.44 nM,< 1 µg/mL
COc1ccc(C2=CN3C(=O)c4cc5c(cc4N=C[C@@H]3C2)OCCCOc2cc3c(cc2OCCCCCCCCO5)C(=O)N2C=C(c4ccc(OC)cc4)C[C@H]2C=N3)cc1,0.621 nM,0.993 nM,1.82 nM,–,–,–,0.167 nM,1.05 nM,< 1 µg/mL
